From patent US20240398784A1, “C-LINKED ISOQUINOLINE AMIDES AS LRRK2 INHIBITORS, PHARMACEUTICAL COMPOSITIONS, AND USES THEREOF” (Merck Sharp & Dohme LLC, priority 2021, published 2024) come the findings set out here.

For the experiment, the target named is LRRK2 G2019S (Homo sapiens, UniProt Q5S007, G2019S). The experiment can be described thus: LRRK2 G2019S Km ATP LanthaScreen assay. It is filed as biochemical. As to conditions: read-out: LRRK2 pIC50 (converted).
Sequence of LRRK2 G2019S (Q5S007 whole entry G2019S): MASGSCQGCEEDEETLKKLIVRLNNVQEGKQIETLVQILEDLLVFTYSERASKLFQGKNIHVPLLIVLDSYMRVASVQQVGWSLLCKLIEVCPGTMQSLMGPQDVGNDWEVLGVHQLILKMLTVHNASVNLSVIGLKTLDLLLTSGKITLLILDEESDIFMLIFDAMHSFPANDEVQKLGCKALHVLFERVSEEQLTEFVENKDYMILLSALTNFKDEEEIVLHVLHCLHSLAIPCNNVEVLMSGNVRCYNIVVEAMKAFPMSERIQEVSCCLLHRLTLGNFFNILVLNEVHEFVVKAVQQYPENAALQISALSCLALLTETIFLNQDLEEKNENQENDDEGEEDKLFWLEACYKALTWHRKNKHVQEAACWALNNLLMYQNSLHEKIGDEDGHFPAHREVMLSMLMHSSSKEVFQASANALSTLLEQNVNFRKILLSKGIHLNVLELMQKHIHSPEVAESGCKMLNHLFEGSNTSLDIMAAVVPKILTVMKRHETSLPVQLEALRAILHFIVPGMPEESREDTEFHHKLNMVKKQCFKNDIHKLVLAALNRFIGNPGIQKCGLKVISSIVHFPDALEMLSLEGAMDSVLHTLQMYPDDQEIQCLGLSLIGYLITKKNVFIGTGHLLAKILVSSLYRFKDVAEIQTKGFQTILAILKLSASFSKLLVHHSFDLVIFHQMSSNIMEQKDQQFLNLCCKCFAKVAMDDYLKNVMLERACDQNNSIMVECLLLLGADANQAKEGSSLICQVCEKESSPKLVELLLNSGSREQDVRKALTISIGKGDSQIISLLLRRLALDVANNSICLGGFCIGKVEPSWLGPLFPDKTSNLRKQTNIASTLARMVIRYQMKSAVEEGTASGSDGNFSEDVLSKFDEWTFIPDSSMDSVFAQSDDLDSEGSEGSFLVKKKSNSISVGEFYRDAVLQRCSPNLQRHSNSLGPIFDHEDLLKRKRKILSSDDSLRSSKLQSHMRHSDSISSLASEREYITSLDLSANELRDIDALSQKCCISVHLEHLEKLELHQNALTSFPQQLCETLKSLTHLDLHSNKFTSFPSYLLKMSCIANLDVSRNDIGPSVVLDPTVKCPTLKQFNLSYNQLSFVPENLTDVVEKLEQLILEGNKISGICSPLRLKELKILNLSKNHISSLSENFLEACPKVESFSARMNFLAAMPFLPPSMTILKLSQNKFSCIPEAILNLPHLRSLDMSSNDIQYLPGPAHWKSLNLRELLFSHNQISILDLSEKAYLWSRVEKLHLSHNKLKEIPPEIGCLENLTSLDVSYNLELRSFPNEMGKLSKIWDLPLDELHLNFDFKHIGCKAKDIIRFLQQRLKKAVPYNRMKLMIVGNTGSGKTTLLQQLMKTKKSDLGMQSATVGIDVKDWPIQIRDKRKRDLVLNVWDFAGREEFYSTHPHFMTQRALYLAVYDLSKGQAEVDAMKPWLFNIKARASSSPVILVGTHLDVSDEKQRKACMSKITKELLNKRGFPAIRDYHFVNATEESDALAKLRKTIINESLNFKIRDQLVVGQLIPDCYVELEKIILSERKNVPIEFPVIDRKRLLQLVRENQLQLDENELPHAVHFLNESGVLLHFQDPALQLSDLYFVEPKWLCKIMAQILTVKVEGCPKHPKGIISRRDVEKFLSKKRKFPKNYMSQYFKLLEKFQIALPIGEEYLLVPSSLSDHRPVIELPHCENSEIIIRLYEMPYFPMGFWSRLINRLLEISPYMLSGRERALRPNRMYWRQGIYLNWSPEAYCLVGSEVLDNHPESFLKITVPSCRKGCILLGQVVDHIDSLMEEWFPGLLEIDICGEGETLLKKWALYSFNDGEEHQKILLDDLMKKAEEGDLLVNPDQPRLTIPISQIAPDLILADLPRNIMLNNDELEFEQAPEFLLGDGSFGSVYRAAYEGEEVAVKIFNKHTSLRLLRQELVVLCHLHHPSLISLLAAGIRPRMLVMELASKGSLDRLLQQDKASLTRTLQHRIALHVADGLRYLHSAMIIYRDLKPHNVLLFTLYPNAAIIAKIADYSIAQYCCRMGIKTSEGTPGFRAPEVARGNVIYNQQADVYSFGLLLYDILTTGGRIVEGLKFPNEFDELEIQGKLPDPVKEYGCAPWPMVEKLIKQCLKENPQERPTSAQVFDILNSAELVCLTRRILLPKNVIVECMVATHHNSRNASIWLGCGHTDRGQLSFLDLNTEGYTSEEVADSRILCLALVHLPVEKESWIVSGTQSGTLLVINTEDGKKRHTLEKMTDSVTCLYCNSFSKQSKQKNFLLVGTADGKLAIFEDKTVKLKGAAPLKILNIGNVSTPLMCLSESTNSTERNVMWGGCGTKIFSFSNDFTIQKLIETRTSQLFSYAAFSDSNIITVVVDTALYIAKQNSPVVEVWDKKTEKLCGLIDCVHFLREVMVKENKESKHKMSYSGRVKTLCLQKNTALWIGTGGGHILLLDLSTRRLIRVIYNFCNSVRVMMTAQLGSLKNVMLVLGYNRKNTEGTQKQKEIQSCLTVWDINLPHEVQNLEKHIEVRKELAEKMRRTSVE

As for `CC(C)OC1CCC(C(=O)Nc2cc3cc(C4CCN(C5(C)COCC5O)CC4)c(Cl)cc3cn2)CO1` (stereo not shown) [Ex-2.27], the IC50 was 0.324 nM.

In the case of `CN(C)C1CCC2C(C(=O)Nc3cc4cc(C5CCN(C6(C)COCC6O)CC5)c(Cl)cc4cn3)C21` (single isomer, unassigned) [Ex-4.27, N-(7-chloro-6-(1-(4-hydroxy-3-methyltetrahydrofuran-3-yl)piperidin-4-yl)isoquinolin-3-yl)-2-(dimethylamino)bicyclo[3.1.0]hexane-6-carboxamide], the IC50 was 2.57 nM.

For `Cn1cc(C(=O)Nc2cc3cc(C4(C#N)CC45CC5)ccc3cn2)cn1` (single isomer, unassigned) [Ex-18.15, (R or S)-N-(6-(1-cyanospiro[2.2]pentan-1-yl)isoquinolin-3-yl)-1-methyl-1H-pyrazole-4-carboxamide], the IC50 was 0.631 nM.

In the case of `CC(C)(O)C1CC1C(=O)Nc1cc2cc(C3CCN(C4(C)COCC4O)CC3)c(Cl)cc2cn1` (single isomer, unassigned) [Ex-1.21, (1R,2R or 1S,2S)-N-(7-chloro-6-(1-((3R,4R or 3S,4S)-4-hydroxy-3-methyltetrahydrofuran-3-yl)piperidin-4-yl)isoquinolin-3-yl)-2-(2-hydroxypropan-2-yl)cyclopropane-1-carboxamide], the IC50 was 0.0912 nM. In the case of `Cn1cc(N2CCC(C(=O)Nc3cc4cc(C5(C#N)CC56CC6)ccc4cn3)C2)cn1` (stereo not shown) [Ex-2.77], the IC50 is 10.2 nM. The value for `CC1(C)CC(C(=O)Nc2cc3cc(C4CCN(C5(C)CCOC5)CC4)c(Cl)cc3cn2)CCO1` (single isomer, unassigned) [Ex-6.45, N-(7-chloro-6-(1-(3-methyltetrahydrofuran-3-yl)piperidin-4-yl)isoquinolin-3-yl)-2,2-dimethyltetrahydro-2H-pyran-4-carboxamide] was 2.14 nM; that for `O=C(Nc1cc2cc(C3CCN(C4COC4)CC3)c(Cl)cc2cn1)C1CC12CCC(F)(F)CC2` (single isomer, unassigned) [Ex-1.8, (R or S)-N-(7-chloro-6-(1-(oxetan-3-yl)piperidin-4-yl)isoquinolin-3-yl)-6,6-difluorospiro[2.5]octane-1-carboxamide] was 21.4 nM. Take `CC1(N2CCC(c3cc4cc(NC(=O)C5C6CCOCC65)ncc4cc3Cl)CC2)COCC1F` (single isomer, unassigned) [Ex-6.42, N-(7-chloro-6-(1-(4-fluoro-3-methyltetrahydrofuran-3-yl)piperidin-4-yl)isoquinolin-3-yl)-3-oxabicyclo[4.1.0]heptane-7-carboxamide]: the IC50 was 0.38 nM. As to `CC1(N2CCC(c3cc4cc(NC(=O)C5CCC(C(F)(F)F)OC5)ncc4cc3Cl)CC2)COCC1O` (stereo not shown) [Ex-2.62], the IC50 is 5.13 nM. With `O=C(C[C@@H](O)C(F)(F)F)Nc1cc2cc(C3CCN(C4COC4)CC3)c(Cl)cc2cn1` [Ex-1.35, (R)-N-(7-chloro-6-(1-(oxetan-3-yl)piperidin-4-yl)isoquinolin-3-yl)-4,4,4-trifluoro-3-hydroxybutanamide], the IC50 was 26.3 nM. With `CC1(N2CCC(c3cc4cc(NC(=O)C5CC56CCOC6)ncc4cc3Cl)CC2)COCC1F` (single isomer, unassigned) [Ex-6.3, (R or S)-N-(7-chloro-6-(1-((3R,4R or 3S,4S)-4-fluoro-3-methyltetrahydrofuran-3-yl)piperidin-4-yl)isoquinolin-3-yl)-5-oxaspiro [2.4] heptane-1-carboxamide], the IC50 was 0.0813 nM. `CC1(N2CCC(c3cc4cc(NC(=O)C5CC5c5cncnc5)ncc4cc3Cl)CC2)COCC1O` (single isomer, unassigned) [Ex-4.35, N-(7-chloro-6-(1-(4-hydroxy-3-methyltetrahydrofuran-3-yl)piperidin-4-yl)isoquinolin-3-yl)-2-(pyrimidin-5-yl)cyclopropane-1-carboxamide]: the IC50 was 0.692 nM. On to `CC1(C)COCC1(C)N1CCC(c2cc3cc(NC(=O)C4CC45CCOCC5)ncc3cc2Cl)CC1` (single isomer, unassigned) [Ex-6.19, N-(7-chloro-6-(1-(3,4,4-trimethyltetrahydrofuran-3-yl)piperidin-4-yl)isoquinolin-3-yl)-6-oxaspiro[2.5]octane-1-carboxamide], for which the IC50 was 39.8 nM. For the compound `CC1(C)CC(C(=O)Nc2cc3cc(C4CCC(N5CCC(F)C5)CC4)c(Cl)cc3cn2)CCO1` (single isomer, unassigned) [Ex-5.11, N-(7-chloro-6-(4-(3-fluoropyrrolidin-1-yl)cyclohexyl)isoquinolin-3-yl)-2,2-dimethyltetrahydro-2H-pyran-4-carboxamid], the IC50 was 70.8 nM. Regarding `O=C(Nc1cc2cc(C3CCN(C4COCC4O)CC3)c(Cl)cc2cn1)C1CC1` (single isomer, unassigned) [Ex-12.3, N-(7-chloro-6-(1-(4-hydroxytetrahydrofuran-3-yl)piperidin-4-yl)isoquinolin-3-yl)cyclopropanecarboxamide], the IC50 was 1.17 nM. For the compound `CC1(C)CC(C(=O)Nc2cc3cc(C4CCC(N5CCC(F)C5)CC4)c(Cl)cc3cn2)CCO1` (single isomer, unassigned) [Ex-5.10, N-(7-chloro-6-(4-(3-fluoropyrrolidin-1-yl)cyclohexyl)isoquinolin-3-yl)-2,2-dimethyltetrahydro-2H-pyran-4-carboxamid], the IC50 was 3.02 nM. In the case of `CC1(N2CCC(c3cc4cc(NC(=O)C5CC56CCOCC6)ncc4cc3Cl)CC2)CCOCC1F` (single isomer, unassigned) [Ex-12.2, N-(7-chloro-6-(1-((3R,4R or 3S,4S)-3-fluoro-4-methyltetrahydro-2H-pyran-4-yl)piperidin-4-yl)isoquinolin-3-yl)-6-oxaspiro[2.5]octane-1-carboxamide] it was 6.46 nM; in that of `Cn1ncc(C2CC2C(=O)Nc2cc3cc(C4(C#N)CC45CC5)ccc3cn2)c1Cl` (stereo not shown) [Ex-2.78], 16.2 nM. As for `COC1CN(C2CCC(c3cc4cc(NC(=O)C5CC56CCOCC6)ncc4cc3Cl)CC2)C1` (single isomer, unassigned) [Ex-11.3, N-(7-chloro-6-(4-(3-methoxyazetidin-1-yl)cyclohexyl)isoquinolin-3-yl)-6-oxaspiro[2.5]octane-1-carboxamide], the IC50 is 0.0813 nM. For `CC(C)N1CCOC(CC(=O)Nc2cc3cc(C4(C#N)CC45CC5)ccc3cn2)C1` (single isomer, unassigned) [Ex-1.46, (R or S)-N-(6-(1-cyanospiro[2.2]pentan-1-yl)isoquinolin-3-yl)-2-(4-isopropylmorpholin-2-yl)acetamide], the IC50 was 13.8 nM. For the compound `CC(C)(O)C1CC1C(=O)Nc1cc2cc(C3CCN(C4(C)COCC4F)CC3)c(Cl)cc2cn1` (single isomer, unassigned) [Ex-6.26, N-(7-chloro-6-(1-(4-fluoro-3-methyltetrahydrofuran-3-yl)piperidin-4-yl)isoquinolin-3-yl)-2-(2-hydroxypropan-2-yl)cyclopropane-1-carboxamide], the IC50 is 0.234 nM.

`CC1(N2CCC(c3cc4cc(NC(=O)C5CC5C(F)F)ncc4cc3Cl)CC2)COCC1O` (single isomer, unassigned) [Ex-4.44, N-(7-chloro-6-(1-(4-hydroxy-3-methyltetrahydrofuran-3-yl)piperidin-4-yl)isoquinolin-3-yl)-2-(difluoromethyl)cyclopropane-1-carboxamide]: the IC50 is 0.562 nM.
